Laboratory results as given in publication PMC10518257 (Nature Cancer, 2023).
pIC50: −log10 of the molar value. Several values for one entry are separate records, joined by “and”; a condition that tells them apart may be missing. Identical values can stand only once. Like-named read-outs stand apart in the source and are kept apart here.

Assays:
ECLC5B cells = test: Growth inhibition (alamarBlue, 96 h); type: cell-based, human; details: for raw viability signal (Source Data Fig. 3b-c): ECLC5B, replicates
[1] = system: Ba/F3 KIF5B–RET^G810R allograft tumors; test: Subcutaneous allograft efficacy study; type: in vivo, BALB/c nude mice; details: in mm³ (unit assumed);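 further: mean tumor volume per dosing group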
Ba/F3 cells = test: Growth inhibition assay in Ba/F3 cells (CellTiter-Glo, 72 h); type: cell-based; details: Mus musculus
LUAD-0087AS2 PDX = test: PDX efficacy study; details: for Change in tumor volume (% from base line): Fig. 6a LUAD-0087AS2; for Change in tumor volume (% from base line) / Tumor volume: individual animals; for Area Under Curve Mean: Fig. 6a LUAD-0087AS2 tumor growth; for Tumor volume: LUAD-0087AS2
[2] = Transcellular transport study, apparent permeability; details: pig, LLC-PK1
[3] = system: ECLC5 luciferase cells implanted intracranially; test: Intracranial efficacy study; type: in vivo, NSG mice; details: for Luminescence Data: Fig. 8e ECLC5 intracranial, 50 mg/kg BID, individual animals

## COCc1ccc(NC(=O)c2c(C#CCN3CCOCC3)n(C3(C)CC3)c3ncnc(N)c23)cc1 [Vepafestinib, 4-amino-N-[4-(methoxymethyl)phenyl]-7-(1-methylcyclopropyl)-6-[3-(morpholin-4-yl)prop-1-yn-1-yl]-7H-pyrrolo[2,3-d]pyrimidine-5-carboxamide]
ECLC5B cells; 0.01 nM
  raw viability signal (Source Data Fig. 3b-c): 9826.46 and 7916.25 and 19010.8
ECLC5B cells; 0.1 nM
  raw viability signal (Source Data Fig. 3b-c): 10351 and 8612.52 and 20662.3
ECLC5B cells; 1 nM
  raw viability signal (Source Data Fig. 3b-c): 10751.4 and 8385.29 and 18478.3
ECLC5B cells; 10 nM
  raw viability signal (Source Data Fig. 3b-c): 4019.62 and 1873.82 and 8615.92
ECLC5B cells; 100 nM
  raw viability signal (Source Data Fig. 3b-c): 3307.08 and 1329.05 and 4450.27
ECLC5B cells; 1000 nM
  raw viability signal (Source Data Fig. 3b-c): 2927.89 and 1305.13 and 4874.13
ECLC5B cells; 10000 nM
  raw viability signal (Source Data Fig. 3b-c): 1756.2 and 2012.52 and 6114.45
ECLC5B cells; Homo sapiens, 96 h, read-out: IC50 for Inhibition of Growth (95% CI)
  pIC50: 8.15
[1]; Fig. 7c Ba/F3-KIF5B::RET G810R, vepafestinib 10 mg/kg BID, day 1
  Tumor Volume Mean: 153.82
[1]; Fig. 7c Ba/F3-KIF5B::RET G810R, vepafestinib 10 mg/kg BID, day 4
  Tumor Volume Mean: 151.29
[1]; Fig. 7c Ba/F3-KIF5B::RET G810R, vepafestinib 10 mg/kg BID, day 8
  Tumor Volume Mean: 262.19
[1]; Fig. 7c Ba/F3-KIF5B::RET G810R, vepafestinib 10 mg/kg BID, day 11
  Tumor Volume Mean: 374.99
[1]; Fig. 7c Ba/F3-KIF5B::RET G810R, vepafestinib 10 mg/kg BID, day 15
  Tumor Volume Mean: 551.42
[1]; Fig. 7d Ba/F3-KIF5B::RET G810R, vepafestinib 50 mg/kg BID, day 1
  Tumor Volume Mean: 158.4
[1]; Fig. 7d Ba/F3-KIF5B::RET G810R, vepafestinib 50 mg/kg BID, day 4
  Tumor Volume Mean: 122.1
[1]; Fig. 7d Ba/F3-KIF5B::RET G810R, vepafestinib 50 mg/kg BID, day 8
  Tumor Volume Mean: 133.3
[1]; Fig. 7d Ba/F3-KIF5B::RET G810R, vepafestinib 50 mg/kg BID, day 11
  Tumor Volume Mean: 139.6
[1]; Fig. 7d Ba/F3-KIF5B::RET G810R, vepafestinib 50 mg/kg BID, day 15
  Tumor Volume Mean: 173.1
Ba/F3 cells; BaF3, 72 h, read-out: GI50 value (Mean ± SD), Ba/F3, CellTiter-Glo, 72 h
  GI50: > 10 µM
Ba/F3 cells; BaF3, Ba/F3 (parental), replicate Sets 1-3
  GI50: > 10 µM
LUAD-0087AS2 PDX; 50 mg/kg BID
  Change in tumor volume (% from base line): 87.879% and 58.129% and 44.45% and -5.144% and -25.229%
  Area Under Curve Mean: 607.7
LUAD-0087AS2 PDX; 100 mg/kg QD
  Change in tumor volume (% from base line): 17.228% and 8.714% and 8.637% and 6.644% and -4.481%
  Area Under Curve Mean: -475
LUAD-0087AS2 PDX; 50 mg/kg BID, treatment day 14
  Tumor volume: 176.99 and 151.71 and 143.39 and 141.55 and 122.52
LUAD-0087AS2 PDX; 50 mg/kg BID, treatment day 17
  Tumor volume: 184.47 and 160.85 and 154.42 and 148.22 and 128.59
LUAD-0087AS2 PDX; 50 mg/kg BID, treatment day 21
  Tumor volume: 153.78 and 172.55 and 161.49 and 152.64 and 130.54
LUAD-0087AS2 PDX; 50 mg/kg BID, treatment day 24
  Tumor volume: 80.7 and 118.01 and 87.03 and 107.44 and 78.99
LUAD-0087AS2 PDX; 50 mg/kg BID, treatment day 29
  Tumor volume: 140.89 (2×) and 167.28 and 145.47 and 91.61
LUAD-0087AS2 PDX; 50 mg/kg BID, treatment day 32
  Tumor volume: 98.2 and 131.95 and 113.98 and 102.07 and 83.83
LUAD-0087AS2 PDX; 50 mg/kg BID, treatment day 35
  Tumor volume: 98.2 and 165.14 and 137.6 and 146.01 and 86.78
LUAD-0087AS2 PDX; 50 mg/kg BID, treatment day 38
  Tumor volume: 108.88 and 165.14 and 151.71 and 155.09 and 86.78
LUAD-0087AS2 PDX; 50 mg/kg BID, treatment day 42
  Tumor volume: 118.01 and 213.8 and 176.98 and 176.74 and 91.61
LUAD-0087AS2 PDX; 50 mg/kg BID, treatment day 45
  Tumor volume: 118.01 and 222.58 and 176.98 and 181.58 and 91.61
LUAD-0087AS2 PDX; 100 mg/kg QD, treatment day 14
  Tumor volume: 102.07 and 91.61 and 107.17 and 110.58 and 103.77
LUAD-0087AS2 PDX; 100 mg/kg QD, treatment day 17
  Tumor volume: 102.07 and 81.71 and 90.28 and 103.77 (2×)
LUAD-0087AS2 PDX; 100 mg/kg QD, treatment day 21
  Tumor volume: 107.17 (2×) and 113.1 and 118.75 and 114.83
LUAD-0087AS2 PDX; 100 mg/kg QD, treatment day 24
  Tumor volume: 93.59 and 83.07 and 77.95 and 87.03 and 98.2
LUAD-0087AS2 PDX; 100 mg/kg QD, treatment day 29
  Tumor volume: 100.37 and 99.78 and 80.89 and 91.87 and 98.2
LUAD-0087AS2 PDX; 100 mg/kg QD, treatment day 32
  Tumor volume: 103.92 and 108.88 and 90.28 and 95.24 and 107.17
LUAD-0087AS2 PDX; 100 mg/kg QD, treatment day 35
  Tumor volume: 109.36 and 120.29 and 95.03 and 107.44 and 110.58
LUAD-0087AS2 PDX; 100 mg/kg QD, treatment day 38
  Tumor volume: 109.36 and 120.29 and 114.83 and 118.75 and 122.12
LUAD-0087AS2 PDX; 100 mg/kg QD, treatment day 42
  Tumor volume: 109.36 and 126.29 and 116.65 and 126.64 and 138.88
LUAD-0087AS2 PDX; 100 mg/kg QD, treatment day 45
  Tumor volume: 109.36 and 126.29 and 120.64 and 126.64 and 138.88
[2]
  Papp at 3 h, 1 μM: 24 ×10⁻⁶ cm/s
[3]; 50 mg per kg BID, all animals alive
  survival time: > 139 d of treatment
[3]; treatment day 0 (=1)
  Luminescence Data: 1
[3]; treatment day 5, day 0 = 1, 50 mg/kg
  Luminescence Data: 0.4116 and 0.5677 and 0.6168 and 0.1116 and 0.9191 and 0.3141
[3]; treatment day 12, day 0 = 1, 50 mg/kg
  Luminescence Data: 0.3041 and 0.6223 and 0.3951 and 0.05187 and 0.856 and 0.4174
[3]; treatment day 18, day 0 = 1, 50 mg/kg
  Luminescence Data: 0.3959 and 0.7406 and 0.6024 and 0.03931 and 0.9545 and 0.2802
[3]; treatment day 26, day 0 = 1, 50 mg/kg
  Luminescence Data: 0.3977 and 0.5749 and 0.4469 and 0.01537 and 0.7719 and 0.2517
[3]; treatment day 33, day 0 = 1, 50 mg/kg
  Luminescence Data: 0.4164 and 0.7522 and 0.6219 and 0.01856 and 1.136 and 0.285
[3]; treatment day 40, day 0 = 1, 50 mg/kg
  Luminescence Data: 0.3201 and 0.5375 and 0.4135 and 0.01963 and 0.792 and 0.1799
[3]; treatment day 46, day 0 = 1, 50 mg/kg
  Luminescence Data: 0.3305 and 0.5368 and 0.3264 and 0.008566 and 0.9694 and 0.2044
[3]; treatment day 55, day 0 = 1, 50 mg/kg
  Luminescence Data: 0.516 and 0.834 and 0.6149 and 0.01696 and 1.167 and 0.3646
[3]; treatment day 61, day 0 = 1, 50 mg/kg
  Luminescence Data: 0.3872 and 0.6582 and 0.5284 and 0.01449 and 1.158 and 0.246
[3]; treatment day 68, day 0 = 1, 50 mg/kg
  Luminescence Data: 0.3804 and 0.71 and 0.4932 and 0.01469 and 1.521 and 0.2588
[3]; treatment day 75, day 0 = 1, 50 mg/kg
  Luminescence Data: 0.2695 and 0.603 and 0.5415 and 0.02346 and 1.537 and 0.2239
[3]; treatment day 82, day 0 = 1, 50 mg/kg
  Luminescence Data: 0.477 and 0.7647 and 0.421 and 0.02545 and 2.278 and 0.2761
[3]; treatment day 89, day 0 = 1, 50 mg/kg
  Luminescence Data: 0.4292 and 0.858 and 0.6342 and 0.04079 and 3.665 and 0.3289
[3]; treatment day 96, day 0 = 1, 50 mg/kg
  Luminescence Data: 0.3189 and 0.6963 and 0.5402 and 0.01338 and 5.016 and 0.1926
[3]; treatment day 103, day 0 = 1, 50 mg/kg
  Luminescence Data: 0.4201 and 0.6542 and 0.7489 and 0.02359 and 6.915 and 0.2847
